Legend:
Assay in all cases: Competitive Binding Assay
[1] = molecular target: T1, Non-receptor tyrosine-protein kinase TYK2 [575-869] (Homo sapiens, UniProt P29597)
T1 construct: 575-869
Description: (§1) The lysates were centrifuged and filtered to remove cell debris. The remaining kinases were produced in HEK-293 cells and subsequently tagged with DNA for qPCR detection. Streptavidin coated magnetic beads were treated with biotinylated small molecule ligands for 30 minutes at room temperature to generate affinity resins for kinase assays. The liganded beads were blocked with excess biotin and washed with blocking buffer (SeaBlock (Pierce), 1% BSA, 0.05 % Tween 20, 1 mM DTT) to remove unbound ligand and to reduce non-specific binding. […] Test compounds were prepared as 111X stocks in 100% DMSO. Dissociation constants (Kds) were determined using an 11-point 3-fold compound dilution series with three DMSO control points. All compounds for Kd measurements are distributed by acoustic transfer (non-contact dispensing) in 100% DMSO. The compounds were then diluted directly into the assays such that the final concentration of DMSO was 0.9%. All reactions performed in polypropylene 384-well plate. Each was a final volume of 0.02 ml. The assay plates were incubated at room temperature with shaking for 1 hour and the affinity beads were washed with wash buffer (1×PBS, 0.05% Tween 20). The beads were then re-suspended in elution buffer (1×PBS, 0.05% Tween 20, 0.5 μM nonbiotinylated affinity ligand) and incubated at room temperature with shaking for 30 minutes. The kinase concentration in the eluates was measured by qPCR.

[2] = molecular target: T2, Tyrosine-protein kinase JAK1 [837-1142] (Homo sapiens, UniProt P23458)
T2 construct: 837-1142
Description: as §1

[3] = molecular target: T3, Tyrosine-protein kinase JAK2 [808-1132] (Homo sapiens, UniProt O60674)
T3 construct: 808-1132
Description: as §1

T3 sequence (O60674 798-1132): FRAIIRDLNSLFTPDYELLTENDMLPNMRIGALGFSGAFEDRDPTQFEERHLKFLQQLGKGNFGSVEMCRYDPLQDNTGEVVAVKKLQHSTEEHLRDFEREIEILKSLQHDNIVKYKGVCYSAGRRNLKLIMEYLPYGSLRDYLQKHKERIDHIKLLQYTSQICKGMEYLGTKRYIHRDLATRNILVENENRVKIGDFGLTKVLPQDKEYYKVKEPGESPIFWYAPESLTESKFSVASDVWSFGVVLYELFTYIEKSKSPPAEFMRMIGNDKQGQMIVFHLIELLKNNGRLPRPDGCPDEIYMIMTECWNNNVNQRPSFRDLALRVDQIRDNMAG
T2 sequence (P23458 837-1142): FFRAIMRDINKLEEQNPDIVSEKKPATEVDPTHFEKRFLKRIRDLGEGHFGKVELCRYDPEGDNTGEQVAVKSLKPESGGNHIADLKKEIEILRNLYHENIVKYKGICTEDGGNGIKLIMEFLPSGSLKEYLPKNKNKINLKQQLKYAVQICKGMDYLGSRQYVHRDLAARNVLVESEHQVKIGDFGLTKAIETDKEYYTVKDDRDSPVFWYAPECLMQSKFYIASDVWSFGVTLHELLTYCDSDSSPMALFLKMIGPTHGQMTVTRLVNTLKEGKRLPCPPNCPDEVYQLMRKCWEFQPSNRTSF
T1 sequence (P29597 575-869): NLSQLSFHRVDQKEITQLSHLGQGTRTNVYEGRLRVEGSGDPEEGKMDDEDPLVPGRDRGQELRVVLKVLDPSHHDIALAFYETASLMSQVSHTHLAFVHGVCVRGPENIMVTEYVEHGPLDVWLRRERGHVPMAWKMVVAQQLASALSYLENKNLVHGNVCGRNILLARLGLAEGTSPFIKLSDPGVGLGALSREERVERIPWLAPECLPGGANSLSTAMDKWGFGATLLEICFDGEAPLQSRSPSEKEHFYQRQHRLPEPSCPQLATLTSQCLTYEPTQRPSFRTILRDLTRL

`[2H]C([2H])([2H])NC(=O)c1nnc(NC(=O)C2CC2)cc1Nc1cccc(-c2cc(P(=O)(C3CC3)C3CC3)n(C)n2)c1OC` [US20240343747, Example B41] was tested, and the Kd [1] was 0.014 nM, the Kd [2] was over 30 µM and the Kd [3] was over 30 µM.

— BindingDB's records for patent US20240343747 (Accro Bioscience (HK), 2024)
